This passage reports TGI results from PubChem BioAssay (NCI).

Each structure is given as a SMILES string.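 Interpolation was linear, between the two tested concentrations surrounding the appropriate level; five concentrations were tested over 48 hours in 96-well plates. TGI denotes the concentration required for complete inhibition of growth.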 Where only a bound is given, the exact number is not on record here.

Test in all cases: inhibition of tumour cell growth, NCI panel, 48 h
For test [1], the system named is OVCAR-8 ovarian.
Test [2] relates to SK-MEL-5 melanoma.
In test [3] the test system is SW-620 colon.
In test [4] the test system is HOP-62 NSCLC.
Test [5] concerns CAKI-1 renal.
Test [6] has as its system PC-3 prostate.
Test [7] relates to RPMI-8226 leukemia.
Test [8] has as its system RXF 393 renal.
In test [9] the test system is SK-MEL-28 melanoma.
The test system of test [10] is MDA-MB-231 breast.
For test [11], the system named is SK-MEL-2 melanoma.
The subject of test [12] is A549 NSCLC.

Turning to `C[Si](C)(OCCS(=O)(=O)O)C1S(=O)(=O)OCCOS1(=O)=O`, the TGI in test [1] is > 100 µM; in test [2] it was > 100 µM; in test [3], > 100 µM; in test [4], > 100 µM; in test [5], 84 µM; in test [6], > 100 µM. The TGI in [7], in test [8], in [9] and in test [10] was > 100 µM each time.
Regarding `COc1cccc(-c2cc(=O)c3c(C)ccnc3[nH]2)c1`, the TGI in test [1] was > 100 µM; in test [2], 3.71 µM; in test [3], > 100 µM; in test [4], > 100 µM; in [6], > 100 µM; in [7], 11.8 µM. Further, the TGI in [11], in test [8], in test [12] and in test [10] was > 100 µM in each case.
On to `CC(=O)Nc1ccc2[nH]c(-c3cccc(F)c3)cc(=O)c2c1`, for which the TGI in test [1] was > 31.6 µM; in test [2] it was 27.8 µM; in [3], > 100 µM; in [4], > 48.4 µM; in test [5], > 100 µM; in test [6], > 100 µM. In addition, the TGI was > 59.8 µM in test [7]; […] in [11]; > 100 µM in test [12]; > 100 µM in test [9]; > 59.6 µM in [10].
As for `COCc1cc2c(cc1/C=C/[N+](=O)[O-])OCO2`, the TGI in [1] is 55.2 µM; in [2], 37.6 µM; in test [3], 40.7 µM; in [4], 35.8 µM; in test [5], 34.2 µM; in [6], 24.6 µM. The TGI in [7] was > 100 µM; in [8], 32.3 µM; in test [12], 32.2 µM; in test [9] it was 25.2 µM; in test [10], 34.7 µM.
Turning to `CCCCOC(=O)C(O)Cc1ccoc1` (configuration not stated), the TGI in [1], in [2], in test [3], in [4], in test [6] and in [7] was > 100 µM each time. Moreover, the TGI in test [11], in test [8], in [12], in [9] and in test [10] was > 100 µM each time.
For the molecule `O=S1C2=C(Cc3ccccc3)C(Cc3ccccc3)=C1CCc1cccc(c1)CC2`, the TGI in [1] came to 34 µM; in test [2] it was 30 µM; in test [3], 77.9 µM; in [5], 28.7 µM; in test [6], 29.3 µM; in test [11] it was 31.1 µM. The TGI in test [8] was 19.7 µM; in test [12] it was 36.3 µM; in test [9], 42.3 µM; in test [10] it was 31.3 µM.
Turning to `CCOC(=O)CCC(NC(=O)c1ccc(N2CCN(c3c(C)nc(N)nc3N)CC2)cc1)C(=O)OCC` (configuration not stated), the TGI in test [1] is > 100 µM; in test [2], 19.6 µM; in [3], > 100 µM; in test [4], > 100 µM; in test [5] it was > 100 µM; in [6], > 100 µM. In addition, the TGI is 6.94 µM in test [7]; > 100 µM in [11]; > 100 µM in test [12]; > 47.4 µM in test [9]; > 100 µM in test [10].
On to `COC(=O)c1cc(C#Cc2cc(OC)ccc2OC)ccc1OC`, for which the TGI in test [1] was > 100 µM; in [2], 53.1 µM; in test [3], > 100 µM; in test [5], > 100 µM; in test [6], > 100 µM; in [7], 41.3 µM. Moreover, the TGI is > 100 µM in test [11]; 84.1 µM in test [8]; > 100 µM in test [12]; > 100 µM in test [9]; > 100 µM in test [10].
As to `COc1ccc2c(c1)c1c(n2CCN2CCCCC2)-c2ccccc2CC1`, the TGI came out at 29 µM in test [1]; 37.3 µM in [2]; 37.8 µM in test [3]; 34.7 µM in [4]; 26.9 µM in test [5]; 30.3 µM in test [6]. Also, the TGI worked out at 56.1 µM in [7]; 29.3 µM in [11]; 36.6 µM in [12]; 38.5 µM in test [9]; 31.8 µM in [10].
As for `O=c1oc2ccccc2n1CCN1CCCCC1`, the TGI in [1], in test [2], in test [3], in test [4], in test [5] and in test [6] was > 100 µM in each case. The TGI in test [7], in test [11], in test [8], in [9] and in test [10] was > 100 µM each time.
As for `CCC(=O)O[C@H]1CC[C@H]2[C@@H]3CCC4=C/C(=N/NC(=O)c5cccc6c(=O)c7ccccc7[nH]c56)CC[C@]4(C)[C@H]3CC[C@]12C`, the TGI in test [1], in [2], in [3], in [4], in test [6] and in test [7] was > 25 µM throughout. For the same molecule, the TGI in test [11], in test [8], in test [12], in test [9] and in [10] was > 25 µM each time.
For `O=c1[nH]nc(Cc2ccccc2)n1Nc1ccccc1`, the TGI in test [1], in test [2], in test [3], in test [4], in test [5] and in test [6] was > 100 µM in each case. The TGI in [7], in test [11], in [12], in test [9] and in test [10] was > 100 µM throughout.
For `C[C@H](O)C1CC(Cn2nnc3c(N)ncnc32)C1(C)C` (some centres not stated), the TGI in [2], in test [3], in [4], in test [5], in [6] and in [11] was > 100 µM in each case. Moreover, the TGI in [8], in [12], in [9] and in test [10] was > 100 µM in each case.
For `O=C1CCCCc2cccc(O)c21`, the TGI in [1], in [2], in test [3], in [4], in test [5] and in [6] was > 100 µM in each case. Besides, the TGI in [7], in test [11], in [8], in test [9] and in test [10] was > 100 µM each time.
As for `Nc1nc(Cl)cc(Nc2cc(Cl)cc(Cl)c2)n1`, the TGI in test [1] was 28.3 µM; in [2], 33.9 µM; in [3] it was 41.1 µM; in test [4], 55.1 µM; in test [5], 48.2 µM; in test [6], 41.5 µM. Further, the TGI in test [7] stood at 66.3 µM; in [11], 38.1 µM; in test [8] it was 38.3 µM; in test [12], 58.9 µM; in [10], 36.3 µM.
On to `COc1cc2c(cc1OC)CC(N=[N+]=[N-])c1cc(OC)c(OC)cc1/C=C\2` (configuration not stated), for which the TGI in test [1] is 55.8 µM; in test [2] it was 63.1 µM; in test [3] it was > 100 µM; in test [4], > 100 µM; in [5], 95.3 µM; in [6] it was > 100 µM. Also, the TGI in [7], in test [11], in test [12], in [9] and in [10] was > 100 µM in each case.
For the molecule `COc1ccc(-c2cc(-c3cc(OC)c(OC)c(OC)c3)cc(-c3cc4ccccc4oc3=O)n2)cc1`, the TGI in test [1] was 16.3 µM; in test [2], 18.6 µM; in [3], > 100 µM; in [4], 5.8 µM; in test [5], 17.3 µM; in [6], 76.8 µM. For the same molecule, the TGI in test [11] came out at 62.2 µM; in test [8] it was 16.1 µM; in [12], 60 µM; in test [10], 8.07 µM.
As to `Cc1ccc(Nc2cc(=O)[nH]c(=S)[nH]2)cc1`, the TGI in test [1], in [2], in test [3], in [4], in test [5] and in test [6] was > 100 µM each time. Besides, the TGI in test [7], in test [11], in test [8], in [12] and in test [10] was > 100 µM throughout.
In the case of `CCC1C(c2cc(OC)c(OC)c(OC)c2)c2cc3c(cc2OC1N1CCOCC1)OCO3` (configuration not stated), the TGI in test [1] was 17.6 µM; in test [2] it was 6.38 µM; in [3] it was 10.3 µM; in [4] it was 20.6 µM; in test [6] it was 14.1 µM; in [11], > 100 µM. Besides, the TGI was 17.8 µM in test [12] and 61.9 µM in [10].
`N#CC1(C#N)NC(c2ccsc2)C(C#N)(C#N)NC1c1ccsc1` (configuration not stated): the TGI in test [1], in test [2], in [3], in test [4], in test [5] and in [6] was > 100 µM throughout. Moreover, the TGI in test [7], in test [11], in [12], in [9] and in test [10] was > 100 µM in each case.
Take `O[C@@H]1C[C@@H]2N[C@@](O)(C[C@@H]2O)[C@H]1O`: the TGI in [1], in test [2], in [3], in test [4], in [6] and in test [7] was > 100 µM throughout. Besides, the TGI in test [8], in test [12], in test [9] and in [10] was > 100 µM in each case.
Turning to `Cc1c(NC(=S)Nc2ccc(Cl)cc2)c(=O)n(-c2ccccc2)n1C`, the TGI in test [2], in test [3], in [4], in test [5], in [6] and in [7] was > 100 µM throughout. Besides, the TGI in test [8], in [12], in test [9] and in test [10] was > 100 µM each time.
Regarding `Cc1ccc(N=C2C(=O)C3=C(OC(C)(C)CC3)c3ccccc32)cc1`, the TGI stood at 2.28 µM in [2]; 2.14 µM in [3]; 1.76 µM in test [4]; 3.16 µM in test [5]; 3.52 µM in [6]; 0.933 µM in [7]. Moreover, the TGI came to 3.31 µM in test [11]; 3.12 µM in test [8]; 3.69 µM in test [12]; 4.69 µM in [9]; 4.1 µM in [10].
As to `COC(=O)c1c(C)cccc1CC1Cc2c(C)cccc2C1=O` (configuration not stated), the TGI in test [1] is > 100 µM; in [2], 37.5 µM; in [3], > 100 µM; in [4] it was > 100 µM; in test [5] it was > 100 µM; in test [6], > 100 µM. Also, the TGI in test [11] is 37.9 µM; in test [8] it was > 100 µM; in test [12], > 100 µM; in [9], > 100 µM; in test [10] it was > 100 µM.
Consider `CC(C)CCn1c(=O)c2c(=O)[nH][nH]c2c2ccccc21`, for which the TGI in test [1], in test [2], in test [3], in test [4], in test [6] and in test [7] was > 100 µM throughout. The TGI in test [12], in test [9] and in test [10] was > 100 µM each time.
`CC(C)=CCC/C(C)=C/CC/C(C)=C/CC/C(C)=C/CC/C(C)=C\CC/C(C)=C/CC/C(C)=C/CC/C(C)=C/Cc1cc(O)ccc1O`: the TGI was 3.42 µM in test [1]; > 100 µM in [3]; 29.5 µM in [4]; 0.703 µM in test [5]; 2.44 µM in [6]; 3.14 µM in [11]. For the same molecule, the TGI is > 22.6 µM in test [12], > 100 µM in test [9] and > 55.2 µM in test [10].
